Results on ten compounds are retold here after patent US9365582B2, “Macrocyclic inhibitors of hepatitis C virus” (Janssen Sciences Ireland UC, priority 2006, dated 2016).

One assay has as its target HCV NS3/4A protease (Hepatitis C virus genotype 1a (isolate H77) (HCV), UniProt P27958). Description: Inhibition assay (enzymatic assay) of full-length NS3 protease with NS4A cofactor. The class given is biochemical. As to conditions: full-length NS3 1 nM, 25 μM NS4A cofactor, 0.5 μM depsipeptide substrate, 30° C., competitive inhibition model. The procedure: The aim of this in vitro assay was to measure the inhibition of HCV NS3/4A protease complexes by the compounds of the present invention.
Inhibitors were dissolved in DMSO, sonicated for 30 sec and vortexed. The solutions were stored at −20° C. between measurements.
The final concentration of DMSO in the assay sample was adjusted to 3.3%. […] A minimum of two replicates was performed for all measurements.

Assay [1] has as its system HCV replicons (Huh-7 luc/neo cells, NS3-NS5B regions of HCV type 1b). Put plainly: Replicon assay (Huh-Luc cells, luciferase readout). The following applies: Hepatitis C virus, Huh-7, 72 h, read-out: EC50 (μM) Replicon assay. The class given is cell-based. An excerpt: This model, while not a complete infection model for HCV, currently is widely accepted as an efficacious model of autonomous HCV RNA replication. […] It will be appreciated that it is important to distinguish between compounds that specifically interfere with HCV functions from those that exert cytotoxic or cytostatic effects in the HCV replicon model, and as a consequence cause a decrease in HCV RNA or linked reporter enzyme concentration. Assays are known in the field for the evaluation of cellular cytotoxicity based for example on the activity of mitochondrial enzymes using fluorogenic redox dyes such as resazurin. Furthermore, cellular counter screens exist for the evaluation of non-selective inhibition of linked reporter gene activity, such as firefly luciferase.
The compounds of formula (I) were examined for activity in the inhibition of HCV RNA replication in a cellular assay. […] In essence, the method was as follows.
The assay utilized the stably transfected cell line Huh-7 luc/neo (hereafter referred to as Huh-Luc). This cell line harbors an RNA encoding a bicistronic expression construct comprising the wild type NS3-NS5B regions of HCV type 1b translated from an internal ribosome entry site (IRES) from encephalomyocarditis virus (EMCV), preceded by a reporter portion (FfL-luciferase), and a selectable marker portion (neo^R, neomycine phosphotransferase). The construct is bordered by 5′ and 3′ NTRs (non-translated regions) from HCV type Ib. Continued culture of the replicon cells in the presence of G418 (neo^R) is dependent on the replication of the HCV RNA. The stably transfected replicon cells that express HCV RNA, which replicates autonomously and to high levels, encoding inter alia luciferase, were used for screening the antiviral compounds.
The replicon cells were plated in 384 well plates in the presence of the test and control compounds which were added in various concentrations. Following an incubation of three days, HCV replication was measured by assaying luciferase activity (using standard luciferase assay substrates and reagents and a Perkin Elmer ViewLux™ ultraHTS microplate imager). […] The inhibitory activity of the compound on luciferase activity was monitored on the Huh-Luc cells, enabling a dose-response curve for each test compound.
(In general: A replicon is a self-replicating genome or part of one, used to study replication in cells.)

Sequence of HCV NS3/4A protease (P27958 1027-1657): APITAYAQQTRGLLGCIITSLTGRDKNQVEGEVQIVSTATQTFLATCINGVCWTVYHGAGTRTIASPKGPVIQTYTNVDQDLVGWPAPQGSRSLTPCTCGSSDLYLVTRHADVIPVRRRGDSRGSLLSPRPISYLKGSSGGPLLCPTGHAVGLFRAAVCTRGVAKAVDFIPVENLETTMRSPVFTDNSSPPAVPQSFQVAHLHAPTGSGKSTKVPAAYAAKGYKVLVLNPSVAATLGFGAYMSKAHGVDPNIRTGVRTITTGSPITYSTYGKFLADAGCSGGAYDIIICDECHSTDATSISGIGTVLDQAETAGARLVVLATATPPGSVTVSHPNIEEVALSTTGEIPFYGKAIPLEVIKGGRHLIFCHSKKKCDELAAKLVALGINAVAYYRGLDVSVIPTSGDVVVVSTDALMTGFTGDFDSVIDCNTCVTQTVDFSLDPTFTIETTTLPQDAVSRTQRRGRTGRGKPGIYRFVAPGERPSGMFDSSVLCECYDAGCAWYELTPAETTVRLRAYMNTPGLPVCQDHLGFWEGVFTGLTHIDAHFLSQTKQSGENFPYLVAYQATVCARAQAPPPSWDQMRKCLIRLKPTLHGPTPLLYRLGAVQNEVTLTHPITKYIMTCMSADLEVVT

Turning to `CCOc1cc(O[C@@H]2C[C@H]3C(=O)N[C@]4(C(=O)NS(=O)(=O)C5CC5)C[C@H]4/C=C\CCCCN(C)C(=O)[C@@H]3C2)c2cccc(Cl)c2n1` [Compound 11, N-[17-[8-chloro-2-ethoxyquinolin-4-yloxy]-13-methyl-2,14-dioxo-3,13-diazatricyclo[13.3.0.0^4,6]octadec-7-ene-4-carbonyl](cyclopropyl)-sulfonamide], affinity on HCV NS3/4A protease was put at a Ki of 0.0005 µM. Further, the EC50 in assay [1] stood at 0.0063 µM.
`CCOc1cc(O[C@@H]2C[C@H]3C(=O)N[C@]4(C(=O)NS(=O)(=O)C5CC5)C[C@H]4/C=C\CCCCN(C)C(=O)[C@@H]3C2)c2ccc(OC)c(Br)c2n1` [Compound 7, N-[17-[8-bromo-2-ethoxy-7-methoxyquinolin-4-yloxy]-13-methyl-2,14-dioxo-3,13-diazatricyclo[13.3.0.0^4,6]octadec-7-ene-4-carbonyl](cyclo-propyl)sulfonamide]: the Ki on HCV NS3/4A protease is 0.0001 µM. In assay [1], the concentration for a half-maximal effect (EC50) is 0.0035 µM.
In turn, `CCOc1cc(O[C@@H]2C[C@H]3C(=O)N[C@]4(C(=O)NS(=O)(=O)C5CC5)C[C@H]4/C=C\CCCCN(C)C(=O)[C@@H]3C2)c2ccc3c(c2n1)OCO3` [Compound 15, N-[17-[8-ethoxy[1,3]dioxolo[4,5-h]quinolin-6-yloxy]-13-methyl-2,14-dioxo-3,13-diazatricyclo[13.3.0.0^4,6]octadec-7-ene-4-carbonyl]-(cyclo-propyl)sulfonamide] returned a Ki on HCV NS3/4A protease of 0.0002 µM. In addition, in assay [1], the EC50 is 0.0035 µM.
The matching figures for `CCOc1cc(O[C@@H]2C[C@H]3C(=O)N[C@]4(C(=O)O)C[C@H]4/C=C\CCCCN(C)C(=O)[C@@H]3C2)c2cccc(Cl)c2n1` [Compound 10, 17-[8-chloro-2-ethoxyquinolin-4-yloxy]-13-methyl-2,14-dioxo-3,13-diazatricyclo[13.3.0.0^4,6]octadec-7-ene-4-carboxylic acid]: 0.0077 µM and 3.81 µM.
Compound `CCOc1cc(O[C@@H]2C[C@H]3C(=O)N[C@]4(C(=O)O)C[C@H]4/C=C\CCCCN(C)C(=O)[C@@H]3C2)c2cccc(C)c2n1` [Compound 12, 17-[2-ethoxy-8-methylquinolin-4-yloxy]-13-methyl-2,14-dioxo-3,13-diazatricyclo[13.3.0.0^4,6]octadec-7-ene-4-carboxylic acid] showed a Ki on HCV NS3/4A protease of 0.017 µM. Besides, the EC50 in assay [1] came to 7.5 µM.
`CCOc1cc(O[C@@H]2C[C@H]3C(=O)N[C@]4(C(=O)O)C[C@H]4/C=C\CCCCN(C)C(=O)[C@@H]3C2)c2ccc3c(c2n1)OCO3` [Compound 14, 17-[8-ethoxy[1,3]dioxolo[4,5-h]quinolin-6-yloxy]-13-methyl-2,14-dioxo-3,13-diazatricyclo[13.3.0.0^4,6]octadec-7-ene-4-carboxylic acid] displayed a Ki on HCV NS3/4A protease of 0.058 µM. Further, in assay [1], the EC50 worked out at 3.3 µM.
In turn, `CCOc1cc(O[C@@H]2C[C@H]3C(=O)N[C@]4(C(=O)NS(=O)(=O)C5CC5)C[C@H]4/C=C\CCCCN(C)C(=O)[C@@H]3C2)c2ccc3c(c2n1)CCO3` [Compound 9, N-[17-[2-ethoxy-8,9-dihydrofuro[2,3-h]quinolin-4-yloxy]-13-methyl-2,14-dioxo-3,13-diazatricyclo[13.3.0.0^4,6]octadec-7-ene-4-carbonyl](cyclo-propyl)sulfonamide] had a Ki at HCV NS3/4A protease of 0.0008 µM. Moreover, in assay [1], the EC50 is 0.029 µM.
For `CCOc1cc(O[C@@H]2C[C@H]3C(=O)N[C@]4(C(=O)NS(=O)(=O)C5CC5)C[C@H]4/C=C\CCCCN(C)C(=O)[C@@H]3C2)c2cccc(C)c2n1` [Compound 13, N-[17-[2-ethoxy-8-methylquinolin-4-yloxy]-13-methyl-2,14-dioxo-3,13-diazatricyclo[13.3.0.0^4,6]octadec-7-ene-4-carbonyl](cyclopropyl)-sulfonamide] the same measures were 0.0001 µM and 0.014 µM.
Take `CCOc1cc(O[C@@H]2C[C@H]3C(=O)N[C@]4(C(=O)NS(=O)(=O)C5CC5)C[C@H]4/C=C\CCCCN(C)C(=O)[C@@H]3C2)c2ccc(OC)cc2n1` [Compound 5, N-[17-[2-ethoxy-7-methoxyquinolin-4-yloxy]-13-methyl-2,14-dioxo-3,13-diazatricyclo[13.3.0.0^4,6]octadec-7-ene-4-carbonyl](cyclopropyl)-sulfonamide]: the Ki on HCV NS3/4A protease is 0.0001 µM. The EC50 in assay [1] was determined as 0.014 µM.
The compound `CCOc1cc(O[C@@H]2C[C@H]3C(=O)N[C@]4(C(=O)O)C[C@H]4/C=C\CCCCN(C)C(=O)[C@@H]3C2)c2ccc(OC)cc2n1` [Compound 4, 17-[2-ethoxy-7-methoxyquinolin-4-yloxy]-13-methyl-2,14-dioxo-3,13-diazatricyclo[13.3.0.0^4,6]octadec-7-ene-4-carboxylic acid] yielded a Ki on HCV NS3/4A protease of 0.046 µM. Moreover, in assay [1], the EC50 turned out to be 4.26 µM.

By Ki is commonly meant the dissociation constant of the complex between target and ligand, obtained from inhibition or displacement. Lower therefore signals a stronger hold on the target. By EC50 is commonly meant the concentration giving half of the maximal effect.
